Assay results reported in patent US20260297165A1, “COMPOSITIONS AND METHODS FOR EXPRESSING THERAPEUTICS” (priority 2023, published 2026).

Legend:
Hep1c1c7 cells = assay: Cell lysis inhibition assay (normal human serum, WST-8); type: cell-based; conditions: NHS dose causing 70% cell lysis
Description: To test biological function of sCD59, cell lysis inhibition assay was performed using Hep1c1c7 cells. The serum dose causing approximately 70% cell lysis was determined for the new normal human serum (NHS) before the purified sCD59 proteins were used for cell lysis inhibition assay. Three hours prior to the experiment, 1×10^4 cells per well were seeded onto a 96-well plate. Various doses of NHS were mixed with GVB2++ buffer (with Ca^2+ and Mg^2+) (Complement Technology, Cat. B100). 100 μL of mixture was added to each well. Background lysis was measured using GVB2++ buffer only and maximum lysis was measured by lysing all the cells with Maximum Lysis Buffer (GVB2++ plus 1% SDS). […] The absorbance at 450 nm was measured using a microplate reader. To calculate the percentage of live cells, the absorbance was subtracted by the Max Lysis, divided by Background Lysis minus Max Lysis and multiplied by 100, which equaled the % of live cells. The % of dead cells was calculated by subtracting 100 by the % of live cells. In the GraphPad Prism, the % of cell death was plotted against dose of NHS, and the dose of NHS causing 50% and 70% hemolysis was respectively determined (FIG. 15A). […]
To test biological function of vsCD59, cell lysis inhibition assay is performed using Hep1c1c7 cells. […] The absorbance at 450 nm is measured using a microplate reader. […]

C3c = molecular target: T1, C3c (Homo sapiens, UniProt P01024); assay: Binding affinity to C3c by Biacore
T1 construct: C3, C3b and C3c proteins were immobilized in flow cell 2 or 4
T1 sequence (P01024 23-667 limits assumed): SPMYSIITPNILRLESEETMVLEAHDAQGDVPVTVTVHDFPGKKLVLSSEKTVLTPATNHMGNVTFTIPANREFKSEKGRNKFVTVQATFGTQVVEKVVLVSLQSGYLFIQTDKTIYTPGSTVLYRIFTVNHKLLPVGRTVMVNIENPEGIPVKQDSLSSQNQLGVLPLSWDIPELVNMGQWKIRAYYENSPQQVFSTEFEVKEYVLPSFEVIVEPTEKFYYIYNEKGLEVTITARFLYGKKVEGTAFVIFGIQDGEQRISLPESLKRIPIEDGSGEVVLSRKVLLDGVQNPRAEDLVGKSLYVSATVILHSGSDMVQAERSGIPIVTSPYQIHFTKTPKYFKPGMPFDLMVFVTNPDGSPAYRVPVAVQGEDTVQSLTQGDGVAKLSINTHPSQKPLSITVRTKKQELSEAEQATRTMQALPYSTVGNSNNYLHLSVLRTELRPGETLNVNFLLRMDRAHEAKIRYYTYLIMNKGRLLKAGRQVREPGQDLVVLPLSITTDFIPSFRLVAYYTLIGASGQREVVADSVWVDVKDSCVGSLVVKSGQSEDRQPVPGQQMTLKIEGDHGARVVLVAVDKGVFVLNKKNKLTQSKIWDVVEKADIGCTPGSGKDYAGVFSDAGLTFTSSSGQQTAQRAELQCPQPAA
T1 sequence (P01024 749-954 partner limits assumed): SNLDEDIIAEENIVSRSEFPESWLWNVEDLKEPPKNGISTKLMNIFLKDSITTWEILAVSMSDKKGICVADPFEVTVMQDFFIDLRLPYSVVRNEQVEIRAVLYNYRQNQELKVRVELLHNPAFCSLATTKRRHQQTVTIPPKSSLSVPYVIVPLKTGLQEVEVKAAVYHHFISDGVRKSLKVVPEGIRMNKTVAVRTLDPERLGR
T1 sequence (P01024 1321-1663 partner limits assumed): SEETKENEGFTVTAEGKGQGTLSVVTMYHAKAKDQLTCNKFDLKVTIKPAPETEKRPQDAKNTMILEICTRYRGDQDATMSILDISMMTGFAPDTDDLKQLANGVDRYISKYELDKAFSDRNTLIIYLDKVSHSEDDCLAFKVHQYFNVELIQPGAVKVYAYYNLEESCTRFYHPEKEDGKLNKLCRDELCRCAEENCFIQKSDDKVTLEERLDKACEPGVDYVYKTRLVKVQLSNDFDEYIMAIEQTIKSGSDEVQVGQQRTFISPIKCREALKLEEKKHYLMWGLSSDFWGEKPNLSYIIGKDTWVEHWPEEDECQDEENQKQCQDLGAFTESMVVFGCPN

C3 = C3 (Homo sapiens, UniProt P01024); assay: Binding affinity to C3 by Biacore
Chain of C3 (P01024 23-1663): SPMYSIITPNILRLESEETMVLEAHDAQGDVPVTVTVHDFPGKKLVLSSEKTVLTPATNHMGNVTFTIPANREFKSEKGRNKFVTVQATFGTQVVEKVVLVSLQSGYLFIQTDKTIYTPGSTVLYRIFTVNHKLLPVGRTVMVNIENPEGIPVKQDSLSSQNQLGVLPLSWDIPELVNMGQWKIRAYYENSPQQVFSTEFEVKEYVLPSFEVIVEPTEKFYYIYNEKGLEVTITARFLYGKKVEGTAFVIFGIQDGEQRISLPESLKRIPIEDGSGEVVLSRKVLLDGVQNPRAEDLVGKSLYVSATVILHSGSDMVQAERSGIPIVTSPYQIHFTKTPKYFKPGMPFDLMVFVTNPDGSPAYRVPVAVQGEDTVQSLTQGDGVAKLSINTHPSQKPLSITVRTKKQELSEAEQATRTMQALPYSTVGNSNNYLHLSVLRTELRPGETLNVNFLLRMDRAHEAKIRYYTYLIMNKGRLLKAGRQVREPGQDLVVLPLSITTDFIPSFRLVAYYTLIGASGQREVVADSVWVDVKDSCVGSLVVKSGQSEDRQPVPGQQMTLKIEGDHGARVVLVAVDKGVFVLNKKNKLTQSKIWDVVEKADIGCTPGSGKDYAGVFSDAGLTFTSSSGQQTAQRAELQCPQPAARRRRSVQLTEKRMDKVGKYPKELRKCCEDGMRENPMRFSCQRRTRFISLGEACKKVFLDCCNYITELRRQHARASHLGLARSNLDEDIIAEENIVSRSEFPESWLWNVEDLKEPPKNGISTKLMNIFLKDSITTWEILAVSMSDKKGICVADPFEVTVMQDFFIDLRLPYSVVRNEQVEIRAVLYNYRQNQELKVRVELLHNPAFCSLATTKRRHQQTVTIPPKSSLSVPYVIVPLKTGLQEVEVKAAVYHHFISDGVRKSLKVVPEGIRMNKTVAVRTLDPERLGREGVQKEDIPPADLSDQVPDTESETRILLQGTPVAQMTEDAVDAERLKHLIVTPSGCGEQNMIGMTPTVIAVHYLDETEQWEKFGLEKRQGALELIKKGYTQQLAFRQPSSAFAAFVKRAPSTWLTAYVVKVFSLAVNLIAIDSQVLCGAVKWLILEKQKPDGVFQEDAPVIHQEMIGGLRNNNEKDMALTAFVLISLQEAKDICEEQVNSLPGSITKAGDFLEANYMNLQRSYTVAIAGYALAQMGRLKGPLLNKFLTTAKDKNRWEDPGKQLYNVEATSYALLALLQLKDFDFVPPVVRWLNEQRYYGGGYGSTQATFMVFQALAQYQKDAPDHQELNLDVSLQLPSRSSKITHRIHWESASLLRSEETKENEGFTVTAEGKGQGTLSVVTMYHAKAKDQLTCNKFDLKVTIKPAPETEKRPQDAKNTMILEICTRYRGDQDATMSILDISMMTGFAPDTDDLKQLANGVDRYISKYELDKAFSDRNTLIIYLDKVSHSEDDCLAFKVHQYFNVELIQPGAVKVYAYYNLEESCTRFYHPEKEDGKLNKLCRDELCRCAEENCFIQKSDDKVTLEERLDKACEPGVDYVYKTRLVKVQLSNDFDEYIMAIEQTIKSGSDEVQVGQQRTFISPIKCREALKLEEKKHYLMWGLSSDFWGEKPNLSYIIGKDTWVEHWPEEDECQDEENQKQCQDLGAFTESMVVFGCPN
Description: (§1) The estimated IC50 of the C3i fusion proteins were measured as shown above. Next their binding affinity with Complement C3b, C3c, and C3 was tested. Binding affinity was measured using Biacore. Biosensor analysis was performed at room temperature in a running buffer (1×HBS, 20 mM NaH2PO4-Na2HPO4·H2O, 150 mM NaCl, pH 7.4, supplemented with 0.005% (v/v) surfactant P20), using a Biacore 3000 optical biosensor equipped with a research-grade CM5 sensor chip. C3, C3b and C3c proteins were immobilized in flow cell 2 or 4 via standard amine coupling, leaving Fc1 or 3 unmodified to serve as a reference surface. The immobilization levels of proteins were calculated using Rmax=100 RU and the ratio of ligand molecular weight/analyte molecular. Data analysis was conducted using the BIAevaluation software. All sensorgrams were double-referenced by subtracting the response on a reference flow cell and a blank sample. Five 2× serial dilution samples were injected sequentially from low concentration to high concentration of proteins at a flow rate of 30 μL/min (300 seconds for each), followed by a dissociation time of 900 seconds. Calculations of kinetic parameters were conducted assuming a simple 1:1 (Langmuir) binding.
(§2) After the testing concentrating was optimized for individual proteins, they were applied on the immobilized chip, and association rate constant (Ka, M^−1s^−1), dissociation constant (Kd, s^−1), equilibrium dissociation constant (KD, M), maximal feasible signal (Rmax), and chi^2 were recorded. The results for complement C3b, C3c, and C3 are listed in Table 22, Table 23, and Table 24, respectively. […] The estimated IC50 of C3i and its fusion proteins and their binding affinity (KD) against C3b, C3c, and C3 are shown in Table 25. When KD values were plotted against estimated IC50, they correlated well with each other for C3b (FIG. 23A) and C3c (FIG. 23B) and, in most cases, for C3 (FIG. 23C).

rabbit erythrocytes = assay: Hemolysis inhibition assay with rabbit erythrocytes and normal human serum; type: cell-based
Description: In parallel, serum dose causing approximately 70% hemolysis was determined for new normal human serum (NHS) before the purified proteins were used for a hemolysis inhibition assay. Various doses of NHS were mixed with rabbit erythrocytes (Cat. B300, Complement Technology) in the presence of 0.1 M Mg2+ EGTA (Cat. B106, Complement Technology). Background lysis was measured using GVBE (GVBo plus 20 mM EDTA, pH 7.4), and maximum lysis was measured by lysing all the cells with Maximum Lysis Buffer (GVBo+0.2% NP40). After all the samples were mixed on ice, they were transferred to 37° C. water bath. The samples were vortexed every 5 minutes and incubated for 30 minutes in total. 1 mL of cold GVBE was added into each tube to stop the reaction. After samples were centrifuged for 3 min at approximately 1000× g to pellet cells, the supernatant was transferred to a cuvette and read at 412 nm in SpectaMax iD3 microplate reader. Each reading was normalized to the background, divided by Max Lysis minus background, and multiplied by 100, which equaled % of Max Lysis. Using the GraphPad Prism software, the % of Max Lysis was plotted against microliters of NHS, and the dose of NHS causing 50% and 70% hemolysis was respectively determined.
Using the NHS dose causing 70% hemolysis, the purified mutant proteins were utilized for a hemolysis inhibition assay. All mutant proteins were 2× serially diluted and mixed with the rabbit erythrocytes in the presence of NHS, resulting in the final concentration of […], 4.10, 2.05, and 1.02 μM of each mutant protein. The benchmark, CP40 peptide, was also used in this study. After each reading was subtracted from the background, it was divided by 70% hemolysis minus background and multiplied by 100. The value was considered as % of hemolysis inhibition. The percentage of hemolysis inhibition was plotted against the molecular concentration of mutant proteins by GraphPad Prism software and IC50 value was estimated based on the data plotting.

NIH-3T3 cells = assay: cGMP production in NIH-3T3 cells; type: cell-based
C3b = C3b (Homo sapiens, UniProt P01024); assay: Binding affinity to C3b by Biacore
Chain of C3b (P01024 23-667 limits assumed): as the sequence (P01024 23-667 limits assumed) above
Chain of C3b (P01024 749-1663 partner limits assumed): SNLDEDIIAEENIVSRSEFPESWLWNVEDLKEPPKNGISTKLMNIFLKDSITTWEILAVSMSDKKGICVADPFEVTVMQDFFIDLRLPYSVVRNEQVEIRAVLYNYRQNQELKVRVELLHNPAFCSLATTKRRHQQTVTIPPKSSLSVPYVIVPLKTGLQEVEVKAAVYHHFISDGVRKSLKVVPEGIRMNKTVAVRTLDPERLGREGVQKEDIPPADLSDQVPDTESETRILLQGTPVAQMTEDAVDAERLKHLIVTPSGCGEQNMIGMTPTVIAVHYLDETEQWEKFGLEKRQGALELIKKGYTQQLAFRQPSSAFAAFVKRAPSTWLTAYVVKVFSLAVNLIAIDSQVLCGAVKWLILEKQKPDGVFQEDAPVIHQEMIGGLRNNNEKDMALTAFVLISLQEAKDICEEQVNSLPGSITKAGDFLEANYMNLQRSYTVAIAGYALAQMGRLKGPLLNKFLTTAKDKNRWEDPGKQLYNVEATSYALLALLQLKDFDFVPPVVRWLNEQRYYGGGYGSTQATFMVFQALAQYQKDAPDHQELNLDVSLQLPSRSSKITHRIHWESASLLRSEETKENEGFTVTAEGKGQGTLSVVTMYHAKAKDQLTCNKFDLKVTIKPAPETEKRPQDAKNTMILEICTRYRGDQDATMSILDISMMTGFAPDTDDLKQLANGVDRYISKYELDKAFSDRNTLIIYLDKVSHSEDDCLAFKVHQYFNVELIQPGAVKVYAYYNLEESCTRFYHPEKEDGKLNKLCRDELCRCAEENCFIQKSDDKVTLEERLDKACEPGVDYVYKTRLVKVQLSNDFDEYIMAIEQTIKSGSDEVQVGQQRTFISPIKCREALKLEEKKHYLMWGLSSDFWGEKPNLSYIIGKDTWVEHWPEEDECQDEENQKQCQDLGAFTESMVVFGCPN
Description: as §1, §2

CC[C@H](C)[C@H](NC(=O)[C@H](N)Cc1ccc(O)cc1)C(=O)N[C@H]1CSSC[C@@H](C(=O)N(C)[C@H](C(N)=O)[C@@H](C)CC)NC(=O)[C@H](CCCNC(=N)N)NC(=O)[C@H](Cc2c[nH]cn2)NC(=O)[C@H](C)NC(=O)CN(C)C(=O)[C@H](Cc2c[nH]c3ccccc23)NC(=O)[C@H](CC(=O)O)NC(=O)[C@H](CCC(N)=O)NC(=O)[C@H](Cc2cn(C)c3ccccc23)NC(=O)[C@H](C(C)C)NC1=O [CP40]
cell lysis inhibition (Hep1c1c7 cells): marginal inhibition | Kd (C3c): 0.509 nM | Chi^2 (C3c; chi^2 of fit, C3c, Biacore): 0.05 | Rmax (C3c; maximal feasible signal, C3c, Biacore): 4.65 | Kd (C3; Affinity to C3 KD, Table 25): 0.63 nM | Kd (C3; KD, equilibrium dissociation constant, room temperature, pH 7.4): 0.629 nM | Chi^2 (C3; chi^2 of fit): 0.10 | Rmax (C3; maximal feasible signal): 25.70 | Estimated IC50 of hemolysis inhibition (rabbit erythrocytes; NHS dose causing 70% hemolysis): 780 nM | Bioactivity IC50 Change (rabbit erythrocytes; change of estimated IC50 relative to CP40): 1 fold | IC50 (rabbit erythrocytes; estimated IC50, read-out: Bioactivity IC50): 780 nM | cGMP production (NIH-3T3 cells): not | Kd (C3b; Affinity to C3b KD, C3b, Biacore, Table 25): 0.32 nM | Rmax (maximal feasible signal) (C3b; C3b immobilized): 3.18 | Chi^2 (C3b; C3b immobilized, fit): 0.12 | Kd (C3b; KD, C3b immobilized, 1:1 (Langmuir) binding): 0.324 nM
